The values that follow come from article PMC5834611, “A mechanism for CO regulation of ion channels” (Nature Communications, 2018).

What is called Kd is a measure of binding affinity in units of concentration. Higher therefore signals a looser complex.

The target in experiment [1] is T1, SUR2A (Rattus norvegicus, UniProt Q63563).
T1 construct: gene Abcc9; residues S615-L933 (SUR2A^615–933; CXXHX16H motif and NBD1)
T1 sequence (Q63563 615-933): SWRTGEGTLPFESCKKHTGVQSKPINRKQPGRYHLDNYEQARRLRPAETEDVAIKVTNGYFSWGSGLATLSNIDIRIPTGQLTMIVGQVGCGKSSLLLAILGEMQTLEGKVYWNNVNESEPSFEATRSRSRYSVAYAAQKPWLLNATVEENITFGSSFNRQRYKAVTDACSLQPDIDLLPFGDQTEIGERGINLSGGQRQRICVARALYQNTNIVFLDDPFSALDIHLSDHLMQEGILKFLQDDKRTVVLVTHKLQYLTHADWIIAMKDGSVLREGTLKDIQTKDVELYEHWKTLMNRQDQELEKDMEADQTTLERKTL
Nature of the experiment: spectrophotometric titration; stopped-flow, resonance Raman, ultrafast spectroscopy. In kind it is binding.

Experiment [2] deals with T1, SUR2A. The experiment can be described thus: UV-vis absorption titration of purified protein; koff by heme transfer to apo-myoglobin. In kind it is binding.

Compound `[C-]#[O+]` [carbon monoxide] gave a Kd at SUR2A [1] of 0.6 ± 0.3 µM.
Turning to `C=CC1=C(C)C2=Cc3c(C=C)c(C)c4[n]3[Fe]([Cl])[n]3c(c(C)c(CCC(=O)O)c3=CC3=NC(=C4)C(C)=C3CCC(=O)O)=CC1=N2` [hemin], the dissociation constant Kd on SUR2A [2] came to 8 ± 0.6 µM.
